Assay results as given in DBAASP.
Converted amounts (≈) assume the structure as drawn.

Columns and labels:
Assay in all cases: ≥ marks a high value that may be exact or a test limit, other limits are often not marked, values filed in µg/mL are converted to µM
[1] = system: Acinetobacter baumannii CCARM 12005
[2] = system: Acinetobacter baumannii CCARM 12035
[3] = system: Acinetobacter baumannii CCARM 12036
[4] = system: Acinetobacter baumannii CCARM 12037
[5] = system: Bacillus subtilis KCTC 1021
[6] = system: Bacillus subtilis KCTC 1022
[7] = system: Bacillus subtilis KCTC 3068
[8] = system: Escherichia coli CCARM 1229
[9] = system: Escherichia coli CCARM 1238
[10] = system: Escherichia coli KCTC 1682
[11] = system: Escherichia coli KCTC 2571
[12] = system: Escherichia coli KCTC 2593
[13] = system: Pseudomonas aeruginosa CCARM 2002
[14] = system: Pseudomonas aeruginosa CCARM 2003
[15] = system: Pseudomonas aeruginosa CCARM 2095
[16] = system: Pseudomonas aeruginosa CCARM 2163
[17] = system: Pseudomonas aeruginosa KCTC 1637
[18] = system: Pseudomonas aeruginosa KCTC 2004
[19] = system: Pseudomonas aeruginosa KCTC 2513
[20] = system: Salmonella typhimurium CCARM 8003
[21] = system: Salmonella typhimurium CCARM 8007
[22] = system: Salmonella typhimurium CCARM 8009
[23] = system: Salmonella typhimurium KCTC 1926
[24] = system: Staphylococcus aureus CCARM 3089
[25] = system: Staphylococcus aureus CCARM 3090
[26] = system: Staphylococcus aureus CCARM 3108
[27] = system: Staphylococcus aureus CCARM 3114
[28] = system: Staphylococcus aureus CCARM 3126
[29] = system: Staphylococcus aureus KCTC 1621
[30] = system: Staphylococcus aureus KCTC 1916
[31] = system: Staphylococcus aureus KCTC 3881
[32] = system: Staphylococcus epidermidis KCTC 1917
[33] = system: Bacillus subtilis ATCC 62037
[34] = system: Candida albicans ATCC 10231
[35] = system: Cryptococcus neoformans ATCC 34881
[36] = system: Escherichia coli ATCC 27325
[37] = system: Pseudomonas putida ATCC 17426
[38] = system: Saccharomyces cerevisiae ATCC 44774
[39] = system: Salmonella enterica subsp. enterica serovar Enteritidis ATCC 13076
[40] = system: Staphylococcus aureus ATCC 15752
[41] = system: Streptococcus mutans ATCC 25175

| MIC [1] | MIC [2] | MIC [3] | MIC [4] | MIC [5] | MIC [6] | MIC [7] | MIC [8] | MIC [9] | MIC [10] | MIC [11] | MIC [12] | MIC [13] | MIC [14] | MIC [15] | MIC [16] | MIC [17] | MIC [18] | MIC [19] | MIC [20] | Compound | further results |
| --- | --- | --- | --- | --- | --- | --- | --- | --- | --- | --- | --- | --- | --- | --- | --- | --- | --- | --- | --- | --- | --- |
| 2 µM (≈ 5.11 µg/mL) | 2 µM (≈ 5.11 µg/mL) | 2 µM (≈ 5.11 µg/mL) | 2 µM (≈ 5.11 µg/mL) | 4 µM (≈ 10.2 µg/mL) | 1 µM (≈ 2.55 µg/mL) | 4 µM (≈ 10.2 µg/mL) | 16 µM (≈ 40.8 µg/mL) | 16 µM (≈ 40.8 µg/mL) | 4 µM (≈ 10.2 µg/mL) | 2 µM (≈ 5.11 µg/mL) | 2 µM (≈ 5.11 µg/mL) | 2 µM (≈ 5.11 µg/mL) | 2 µM (≈ 5.11 µg/mL) | 2 µM (≈ 5.11 µg/mL) | 2 µM (≈ 5.11 µg/mL) | 4 µM (≈ 10.2 µg/mL) | 8 µM (≈ 20.4 µg/mL) | 8 µM (≈ 20.4 µg/mL) | 16 µM (≈ 40.8 µg/mL) | CC[C@H](C)[C@H](NC(=O)CNC(=O)[C@H](CCCN=C(N)N)NC(=O)[C@H](Cc1ccccc1)NC(=O)[C@@H](NC(=O)[C@H](Cc1cnc[nH]1)NC(=O)[C@H](Cc1cnc[nH]1)NC(=O)[C@H](CCCCN)NC(=O)[C@@H](N)Cc1ccccc1)[C@@H](C)CC)C(=O)N[C@H](C(=O)N[C@@H](Cc1cnc[nH]1)C(=O)N[C@H](C(=O)NCC(=O)N[C@@H](CCCCN)C(=O)N[C@H](C(=O)N[C@H](C(=O)N[C@@H](Cc1cnc[nH]1)C(=O)N[C@@H](CCCN=C(N)N)C(=O)N[C@@H](CC(C)C)C(=O)N[C@H](C(=O)N[C@H](C(=O)NCC(=O)O)[C@@H](C)O)C(C)C)[C@@H](C)CC)[C@@H](C)O)C(C)C)C(C)C [FKHHIFRGIVHVGKTIHRLVTG] | MIC [21]: 16 µM (≈ 40.8 µg/mL); MIC [22]: 16 µM (≈ 40.8 µg/mL); MIC [23]: 8 µM (≈ 20.4 µg/mL); MIC [24]: 16 µM (≈ 40.8 µg/mL); MIC [25]: 16 µM (≈ 40.8 µg/mL); MIC [26]: 16 µM (≈ 40.8 µg/mL); MIC [27]: 16 µM (≈ 40.8 µg/mL); MIC [28]: 16 µM (≈ 40.8 µg/mL); MIC [29]: 4 µM (≈ 10.2 µg/mL); MIC [30]: 2 µM (≈ 5.11 µg/mL); MIC [31]: 2 µM (≈ 5.11 µg/mL); MIC [32]: 2 µM (≈ 5.11 µg/mL) |
| – | – | – | – | – | – | – | – | – | – | – | – | – | – | – | – | – | – | – | – | CC(C)[C@H](NC(=O)[C@H](CCCCN)NC(=O)CNC(=O)CNC(=O)[C@H](CCC(N)=O)NC(=O)[C@H](CCCCN)NC(=O)CNC(=O)[C@H](CCCN=C(N)N)NC(=O)[C@@H](N)CCCCN)C(=O)N[C@@H](CCCN=C(N)N)C(=O)N[C@@H](C)C(=O)N[C@@H](CCCCN)C(=O)N[C@@H](C)C(=O)N[C@@H](CCCCN)C(=O)N[C@H](C(=O)N[C@@H](CCCN=C(N)N)C(=O)N[C@@H](CO)C(=O)N[C@@H](CO)C(=O)O)[C@@H](C)O [KRGKQGGKVRAKAKTRSS] | MIC [33]: 8.23 µM (≈ 16 µg/mL); MIC [34]: 8.23 µM (≈ 16 µg/mL); MIC [35]: 4.12 µM (≈ 8 µg/mL); MIC [36]: 4.12 µM (≈ 8 µg/mL); MIC [37]: 8.23 µM (≈ 16 µg/mL); MIC [38]: 8.23 µM (≈ 16 µg/mL); MIC [39]: 8.23 µM (≈ 16 µg/mL); MIC [40]: 16.5 µM (≈ 32 µg/mL); MIC [41]: 16.5 µM (≈ 32 µg/mL) |
| 4 µM (≈ 9.98 µg/mL) | 4 µM (≈ 9.98 µg/mL) | 4 µM (≈ 9.98 µg/mL) | 4 µM (≈ 9.98 µg/mL) | 16 µM (≈ 39.9 µg/mL) | 2 µM (≈ 4.99 µg/mL) | 4 µM (≈ 9.98 µg/mL) | ≥ 32 µM | ≥ 32 µM | 2 µM (≈ 4.99 µg/mL) | 4 µM (≈ 9.98 µg/mL) | 2 µM (≈ 4.99 µg/mL) | 4 µM (≈ 9.98 µg/mL) | 4 µM (≈ 9.98 µg/mL) | 4 µM (≈ 9.98 µg/mL) | 4 µM (≈ 9.98 µg/mL) | 4 µM (≈ 9.98 µg/mL) | 8 µM (≈ 20 µg/mL) | 16 µM (≈ 39.9 µg/mL) | ≥ 32 µM | CC[C@H](C)[C@H](NC(=O)CNC(=O)[C@H](CCCN=C(N)N)NC(=O)[C@H](C)NC(=O)[C@@H](NC(=O)[C@H](Cc1cnc[nH]1)NC(=O)[C@H](Cc1cnc[nH]1)NC(=O)[C@H](Cc1ccccc1)NC(=O)[C@@H](N)Cc1ccccc1)[C@@H](C)CC)C(=O)N[C@H](C(=O)N[C@@H](Cc1cnc[nH]1)C(=O)N[C@H](C(=O)NCC(=O)N[C@@H](CCCCN)C(=O)N[C@H](C(=O)N[C@H](C(=O)N[C@@H](Cc1cnc[nH]1)C(=O)N[C@@H](CCCN=C(N)N)C(=O)N[C@@H](CC(C)C)C(=O)N[C@H](C(=O)N[C@H](C(=O)NCC(=O)O)[C@@H](C)O)C(C)C)[C@@H](C)CC)[C@@H](C)O)C(C)C)C(C)C [FFHHIARGIVHVGKTIHRLVTG] | MIC [21]: 16 µM (≈ 39.9 µg/mL); MIC [22]: 16 µM (≈ 39.9 µg/mL); MIC [23]: 16 µM (≈ 39.9 µg/mL); MIC [24]: ≥ 32 µM; MIC [25]: ≥ 32 µM; MIC [26]: 16 µM (≈ 39.9 µg/mL); MIC [27]: 16 µM (≈ 39.9 µg/mL); MIC [28]: 16 µM (≈ 39.9 µg/mL); MIC [29]: 4 µM (≈ 9.98 µg/mL); MIC [30]: 2 µM (≈ 4.99 µg/mL); MIC [31]: 4 µM (≈ 9.98 µg/mL); MIC [32]: 4 µM (≈ 9.98 µg/mL) |
| 2 µM (≈ 5.16 µg/mL) | 2 µM (≈ 5.16 µg/mL) | 2 µM (≈ 5.16 µg/mL) | 2 µM (≈ 5.16 µg/mL) | 4 µM (≈ 10.3 µg/mL) | 2 µM (≈ 5.16 µg/mL) | 1 µM (≈ 2.58 µg/mL) | 4 µM (≈ 10.3 µg/mL) | 4 µM (≈ 10.3 µg/mL) | 1 µM (≈ 2.58 µg/mL) | 2 µM (≈ 5.16 µg/mL) | 2 µM (≈ 5.16 µg/mL) | 2 µM (≈ 5.16 µg/mL) | 2 µM (≈ 5.16 µg/mL) | 2 µM (≈ 5.16 µg/mL) | 2 µM (≈ 5.16 µg/mL) | 1 µM (≈ 2.58 µg/mL) | 2 µM (≈ 5.16 µg/mL) | 2 µM (≈ 5.16 µg/mL) | 8 µM (≈ 20.7 µg/mL) | CC[C@H](C)[C@H](NC(=O)CNC(=O)[C@H](CCCN=C(N)N)NC(=O)[C@H](Cc1ccccc1)NC(=O)[C@@H](NC(=O)[C@H](Cc1cnc[nH]1)NC(=O)[C@H](Cc1cnc[nH]1)NC(=O)[C@H](Cc1ccccc1)NC(=O)[C@@H](N)CCCCN)[C@@H](C)CC)C(=O)N[C@@H](CCCCN)C(=O)N[C@@H](Cc1cnc[nH]1)C(=O)N[C@H](C(=O)NCC(=O)N[C@@H](CCCCN)C(=O)N[C@H](C(=O)N[C@H](C(=O)N[C@@H](Cc1cnc[nH]1)C(=O)N[C@@H](CCCN=C(N)N)C(=O)N[C@@H](CC(C)C)C(=O)N[C@H](C(=O)N[C@H](C(=O)NCC(=O)O)[C@@H](C)O)C(C)C)[C@@H](C)CC)[C@@H](C)O)C(C)C [KFHHIFRGIKHVGKTIHRLVTG] | MIC [21]: 8 µM (≈ 20.7 µg/mL); MIC [22]: 8 µM (≈ 20.7 µg/mL); MIC [23]: 1 µM (≈ 2.58 µg/mL); MIC [24]: 4 µM (≈ 10.3 µg/mL); MIC [25]: 4 µM (≈ 10.3 µg/mL); MIC [26]: 4 µM (≈ 10.3 µg/mL); MIC [27]: 8 µM (≈ 20.7 µg/mL); MIC [28]: 4 µM (≈ 10.3 µg/mL); MIC [29]: 2 µM (≈ 5.16 µg/mL); MIC [30]: 2 µM (≈ 5.16 µg/mL); MIC [31]: 2 µM (≈ 5.16 µg/mL); MIC [32]: 1 µM (≈ 2.58 µg/mL) |
